Reference: patent US9738644B2, “Chemical compounds, compositions and methods for kinase modulation” (Infinity Pharmaceuticals, Inc., priority 2010, dated 2017)

Legend:
PI3K δ = target: T1, PI3K δ (Homo sapiens, UniProt O00329); assay: In vitro PI3K δ inhibition assay; format: biochemical
T1 construct: purchased Upstate
Protocol: (§1) Class I PI3-Ks can be either purchased (p110α/p85α, p110β/p85α, p110δ/p85α from Upstate, and p110γ from Sigma) or expressed as previously described (Knight et al., 2004). IC50 values are measured using either a standard TLC assay for lipid kinase activity (described below) or a high-throughput membrane capture assay. Kinase reactions are performed by preparing a reaction mixture containing kinase, inhibitor (2% DMSO final concentration), buffer (25 mM HEPES, pH 7.4, 10 mM MgCl2), and freshly sonicated phosphatidylinositol (100 μg/ml). Reactions are initiated by the addition of ATP containing 10 μCi of γ-32P-ATP to a final concentration of 10 or 100 μM and allowed to proceed for 5 minutes at room temperature. For TLC analysis, reactions are then terminated by the addition of 105 μl 1N HCl followed by 160 μl CHCl3:MeOH (1:1). The biphasic mixture is vortexed, briefly centrifuged, and the organic phase is transferred to a new tube using a gel loading pipette tip precoated with CHCl3. This extract is spotted on TLC plates and developed for 3-4 hours in a 65:35 solution of n-propanol:1M acetic acid. The TLC plates are then dried, exposed to a phosphorimager screen (Storm, Amersham), and quantitated. For each compound, kinase activity is measured at 10-12 inhibitor concentrations representing two-fold dilutions from the highest concentration tested (typically, 200 μM). […] Other commercial kits or systems for assaying PI3-K activities are available. The commercially available kits or systems can be used to screen for inhibitors and/or agonists of PI3-Ks including, but not limited to, PI 3-Kinase α, β, δ, and γ. An exemplary system is PI 3-Kinase (human) HTRF™ Assay from Upstate. […] Briefly, the assay is a time resolved FRET assay that indirectly measures PIP3 product formed by the activity of a PI3-K. The kinase reaction is performed in a microtiter plate (e.g., a 384 well microtiter plate). The total reaction volume is approximately 20 μl per well. In the first step, each well receives 2 μl of test compound in 20% dimethylsulphoxide resulting in a 2% DMSO final concentration. Next, approximately 14.5 μl of a kinase/PIP2 mixture (diluted in 1× reaction buffer) is added per well for a final concentration of 0.25-0.3 μg/ml kinase and 10 μM PIP2. The plate is sealed and incubated for 15 minutes at room temperature. To start the reaction, 3.5 μl of ATP (diluted in 1× reaction buffer) is added per well for a final concentration of 10 μM ATP. The plate is sealed and incubated for 1 hour at room temperature. The reaction is stopped by adding 5 μl of Stop Solution per well and then 5 μl of Detection Mix is added per well. The plate is sealed, incubated for 1 hour at room temperature, and then read on an appropriate plate reader. Data is analyzed and IC50s are generated using GraphPad Prism 5.

PI3K γ = target: T2, PI3K γ (Homo sapiens, UniProt P48736); assay: In vitro PI3K γ inhibition assay; format: biochemical
T2 construct: purchased Sigma
T2 sequence (P48736 whole entry): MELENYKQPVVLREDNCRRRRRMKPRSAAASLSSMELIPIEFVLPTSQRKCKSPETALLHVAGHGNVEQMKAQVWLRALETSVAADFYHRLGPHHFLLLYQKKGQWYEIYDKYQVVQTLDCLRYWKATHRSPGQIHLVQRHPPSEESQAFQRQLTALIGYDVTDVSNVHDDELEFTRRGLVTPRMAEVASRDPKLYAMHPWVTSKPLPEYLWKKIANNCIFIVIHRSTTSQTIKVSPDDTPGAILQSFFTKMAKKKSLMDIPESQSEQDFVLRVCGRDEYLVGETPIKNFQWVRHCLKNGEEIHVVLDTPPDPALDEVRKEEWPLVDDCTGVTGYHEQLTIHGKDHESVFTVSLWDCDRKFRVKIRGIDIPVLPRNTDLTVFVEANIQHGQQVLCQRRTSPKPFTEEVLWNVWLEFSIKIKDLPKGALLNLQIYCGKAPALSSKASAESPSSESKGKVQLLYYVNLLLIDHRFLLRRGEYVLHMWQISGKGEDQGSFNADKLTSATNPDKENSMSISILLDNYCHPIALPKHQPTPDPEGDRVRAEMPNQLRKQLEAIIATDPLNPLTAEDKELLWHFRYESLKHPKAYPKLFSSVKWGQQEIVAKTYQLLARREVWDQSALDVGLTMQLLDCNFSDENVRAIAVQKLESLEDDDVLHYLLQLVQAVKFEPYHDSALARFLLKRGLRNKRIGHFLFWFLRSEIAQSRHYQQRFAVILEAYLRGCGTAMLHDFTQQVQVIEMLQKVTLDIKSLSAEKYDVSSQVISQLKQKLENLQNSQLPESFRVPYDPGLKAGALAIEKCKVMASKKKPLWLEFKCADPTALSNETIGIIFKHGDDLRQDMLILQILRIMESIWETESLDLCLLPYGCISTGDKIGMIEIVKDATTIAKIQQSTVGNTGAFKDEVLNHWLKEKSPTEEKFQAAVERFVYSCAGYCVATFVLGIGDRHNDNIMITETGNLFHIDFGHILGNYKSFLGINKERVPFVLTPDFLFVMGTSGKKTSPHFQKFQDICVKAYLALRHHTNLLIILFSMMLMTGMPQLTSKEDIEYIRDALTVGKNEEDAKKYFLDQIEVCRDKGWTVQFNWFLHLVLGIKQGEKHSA
Protocol: as §1

PI3K α = target: T3, PI3K α (Homo sapiens, UniProt P42336); assay: In vitro PI3K α inhibition assay; format: biochemical
T3 construct: purchased Upstate
T3 sequence (P42336 whole entry): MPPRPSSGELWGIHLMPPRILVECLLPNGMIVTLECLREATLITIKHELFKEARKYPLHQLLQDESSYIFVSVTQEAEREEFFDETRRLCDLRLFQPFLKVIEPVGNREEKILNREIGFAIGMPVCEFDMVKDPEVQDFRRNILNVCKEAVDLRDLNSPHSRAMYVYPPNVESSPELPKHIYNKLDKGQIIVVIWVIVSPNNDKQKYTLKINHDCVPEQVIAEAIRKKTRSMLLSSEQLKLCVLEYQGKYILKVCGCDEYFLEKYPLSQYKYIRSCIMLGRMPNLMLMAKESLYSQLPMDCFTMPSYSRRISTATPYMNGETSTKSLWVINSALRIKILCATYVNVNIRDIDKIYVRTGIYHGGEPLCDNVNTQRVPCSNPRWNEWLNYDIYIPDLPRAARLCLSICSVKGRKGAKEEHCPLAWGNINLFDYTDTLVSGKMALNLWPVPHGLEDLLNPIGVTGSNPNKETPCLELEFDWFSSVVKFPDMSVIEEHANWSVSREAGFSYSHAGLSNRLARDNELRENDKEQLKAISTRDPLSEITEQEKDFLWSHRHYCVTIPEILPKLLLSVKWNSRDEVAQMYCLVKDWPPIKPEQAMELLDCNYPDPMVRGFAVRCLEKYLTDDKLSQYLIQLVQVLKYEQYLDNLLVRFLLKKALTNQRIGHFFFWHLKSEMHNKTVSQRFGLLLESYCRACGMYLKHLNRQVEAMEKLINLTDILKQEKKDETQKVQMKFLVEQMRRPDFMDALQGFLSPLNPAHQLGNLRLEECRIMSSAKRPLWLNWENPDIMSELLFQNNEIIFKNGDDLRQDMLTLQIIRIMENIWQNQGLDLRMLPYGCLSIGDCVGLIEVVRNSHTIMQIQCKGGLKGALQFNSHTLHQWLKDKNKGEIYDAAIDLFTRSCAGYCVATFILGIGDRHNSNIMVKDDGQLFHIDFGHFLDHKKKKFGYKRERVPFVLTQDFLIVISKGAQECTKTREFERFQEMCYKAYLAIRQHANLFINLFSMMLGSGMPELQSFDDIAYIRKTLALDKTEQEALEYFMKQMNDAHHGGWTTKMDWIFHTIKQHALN
T3 sequence (P27986 whole entry partner): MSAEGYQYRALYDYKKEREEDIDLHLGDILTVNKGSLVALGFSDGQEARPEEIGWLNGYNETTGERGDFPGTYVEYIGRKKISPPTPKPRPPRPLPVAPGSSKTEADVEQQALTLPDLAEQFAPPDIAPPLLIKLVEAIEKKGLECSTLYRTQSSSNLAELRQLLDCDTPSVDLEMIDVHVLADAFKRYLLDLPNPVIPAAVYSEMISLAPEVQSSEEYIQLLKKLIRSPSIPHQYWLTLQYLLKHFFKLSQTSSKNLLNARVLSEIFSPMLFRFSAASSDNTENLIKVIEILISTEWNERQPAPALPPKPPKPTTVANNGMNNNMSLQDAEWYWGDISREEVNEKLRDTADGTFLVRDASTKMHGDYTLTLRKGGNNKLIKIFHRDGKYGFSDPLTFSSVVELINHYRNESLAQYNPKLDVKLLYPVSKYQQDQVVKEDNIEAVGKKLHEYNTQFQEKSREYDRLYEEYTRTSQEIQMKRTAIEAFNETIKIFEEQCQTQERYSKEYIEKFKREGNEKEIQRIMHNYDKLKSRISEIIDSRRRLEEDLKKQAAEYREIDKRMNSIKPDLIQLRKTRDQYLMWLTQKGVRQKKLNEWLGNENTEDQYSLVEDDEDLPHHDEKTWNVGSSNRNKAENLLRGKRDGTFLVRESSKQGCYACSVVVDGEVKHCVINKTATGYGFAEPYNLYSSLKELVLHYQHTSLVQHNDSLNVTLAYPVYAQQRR
Protocol: (§2) Class I PI3-Ks can be either purchased (p110α/p85α, p110β/p85α, p110δ/p85α from Upstate, and p110γ from Sigma) or expressed as previously described (Knight et al., 2004). IC50 values are measured using either a standard TLC assay for lipid kinase activity (described below) or a high-throughput membrane capture assay. Kinase reactions are performed by preparing a reaction mixture containing kinase, inhibitor (2% DMSO final concentration), buffer (25 mM HEPES, pH 7.4, 10 mM MgCl2), and freshly sonicated phosphatidylinositol (100 μg/ml). Reactions are initiated by the addition of ATP containing 10 μCi of γ-32P-ATP to a final concentration of 10 or 100 μM and allowed to proceed for 5 minutes at room temperature. For TLC analysis, reactions are then terminated by the addition of 105 μl 1N HCl followed by 160 μl CHCl3:MeOH (1:1). The biphasic mixture is vortexed, briefly centrifuged, and the organic phase is transferred to a new tube using a gel loading pipette tip precoated with CHCl3. This extract is spotted on TLC plates and developed for 3-4 hours in a 65:35 solution of n-propanol:1M acetic acid. The TLC plates are then dried, exposed to a phosphorimager screen (Storm, Amersham), and quantitated. For each compound, kinase activity is measured at 10-12 inhibitor concentrations representing two-fold dilutions from the highest concentration tested (typically, 200 μM).
(§3) Other commercial kits or systems for assaying PI3-K activities are available. The commercially available kits or systems can be used to screen for inhibitors and/or agonists of PI3-Ks including, but not limited to, PI 3-Kinase α, β, δ, and γ. An exemplary system is PI 3-Kinase (human) HTRF™ Assay from Upstate. […] Briefly, the assay is a time resolved FRET assay that indirectly measures PIP3 product formed by the activity of a PI3-K. The kinase reaction is performed in a microtiter plate (e.g., a 384 well microtiter plate). The total reaction volume is approximately 20 μl per well. In the first step, each well receives 2 μl of test compound in 20% dimethylsulphoxide resulting in a 2% DMSO final concentration. Next, approximately 14.5 μl of a kinase/PIP2 mixture (diluted in 1× reaction buffer) is added per well for a final concentration of 0.25-0.3 μg/ml kinase and 10 μM PIP2. The plate is sealed and incubated for 15 minutes at room temperature. To start the reaction, 3.5 μl of ATP (diluted in 1× reaction buffer) is added per well for a final concentration of 10 μM ATP. The plate is sealed and incubated for 1 hour at room temperature. The reaction is stopped by adding 5 μl of Stop Solution per well and then 5 μl of Detection Mix is added per well. The plate is sealed, incubated for 1 hour at room temperature, and then read on an appropriate plate reader. Data is analyzed and IC50s are generated using GraphPad Prism 5.

PI3K β = target: T4, PI3K β (Homo sapiens, UniProt P42338); assay: In vitro PI3K β inhibition assay; format: biochemical
T4 construct: purchased Upstate
T4 sequence (P42338 whole entry): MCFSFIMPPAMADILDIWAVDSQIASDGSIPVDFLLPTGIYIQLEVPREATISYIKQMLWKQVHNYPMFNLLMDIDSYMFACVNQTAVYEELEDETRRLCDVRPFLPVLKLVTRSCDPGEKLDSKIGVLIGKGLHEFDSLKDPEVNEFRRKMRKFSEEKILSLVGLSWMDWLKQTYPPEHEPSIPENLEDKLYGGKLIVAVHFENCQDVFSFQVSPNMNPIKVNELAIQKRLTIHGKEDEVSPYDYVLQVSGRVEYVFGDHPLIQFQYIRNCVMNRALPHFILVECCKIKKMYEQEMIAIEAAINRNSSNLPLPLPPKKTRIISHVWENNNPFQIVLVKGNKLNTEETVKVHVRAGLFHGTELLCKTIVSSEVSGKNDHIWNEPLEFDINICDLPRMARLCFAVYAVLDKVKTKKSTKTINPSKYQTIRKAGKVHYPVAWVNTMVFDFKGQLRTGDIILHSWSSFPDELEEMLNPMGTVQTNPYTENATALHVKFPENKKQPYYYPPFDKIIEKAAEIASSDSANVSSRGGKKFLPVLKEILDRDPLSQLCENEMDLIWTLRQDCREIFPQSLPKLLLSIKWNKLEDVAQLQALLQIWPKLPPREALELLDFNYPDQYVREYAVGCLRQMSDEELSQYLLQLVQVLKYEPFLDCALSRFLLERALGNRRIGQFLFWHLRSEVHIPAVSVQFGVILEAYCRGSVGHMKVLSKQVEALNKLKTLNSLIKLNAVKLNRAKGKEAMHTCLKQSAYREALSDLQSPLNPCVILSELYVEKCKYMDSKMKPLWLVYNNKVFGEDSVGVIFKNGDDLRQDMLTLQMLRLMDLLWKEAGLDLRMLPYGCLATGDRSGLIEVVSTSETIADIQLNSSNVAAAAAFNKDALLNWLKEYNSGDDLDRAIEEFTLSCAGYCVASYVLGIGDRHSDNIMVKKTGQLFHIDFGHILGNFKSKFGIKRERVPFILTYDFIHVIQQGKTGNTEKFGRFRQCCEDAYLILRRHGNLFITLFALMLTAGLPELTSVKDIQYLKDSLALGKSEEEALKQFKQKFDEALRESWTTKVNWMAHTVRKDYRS
T4 sequence (P27986 whole entry partner): as the sequence (P27986 whole entry partner) above
Protocol: as §2, §3

Balb/c splenic B cells = assay: B cell activation and proliferation assay (Alamar Blue); format: cell-based; details: Mus musculus, read-out: B cell proliferation EC50
Protocol: The ability of one or more subject compounds to inhibit B cell activation and proliferation is determined according to standard procedures known in the art. For example, an in vitro cellular proliferation assay is established that measures the metabolic activity of live cells. The assay is performed in a 96 well microtiter plate using Alamar Blue reduction. Balb/c splenic B cells are purified over a Ficoll-Paque™ PLUS gradient followed by magnetic cell separation using a MACS B cell Isolation Kit (Miletenyi). Cells are plated in 90 μl at 50,000 cells/well in B Cell Media (RPMI+10% FBS+Penn/Strep+50 μM bME+5 mM HEPES). A compound disclosed herein is diluted in B Cell Media and added in a 10 μl volume. Plates are incubated for 30 min at 37° C. and 5% CO2 (0.2% DMSO final concentration). A 50 μl B cell stimulation cocktail is then added containing either 10 μg/ml LPS or 5 μg/ml F(ab′)2 Donkey anti-mouse IgM plus 2 ng/ml recombinant mouse IL4 in B Cell Media. Plates are incubated for 72 hours at 37° C. and 5% CO2. A volume of 15 μL of Alamar Blue reagent is added to each well and plates are incubated for 5 hours at 37° C. and 5% CO2. Alamar Blue fluoresce is read at 560Ex/590Em, and IC50 or EC50 values are calculated using GraphPad Prism 5.

T1 sequence (O00329 whole entry): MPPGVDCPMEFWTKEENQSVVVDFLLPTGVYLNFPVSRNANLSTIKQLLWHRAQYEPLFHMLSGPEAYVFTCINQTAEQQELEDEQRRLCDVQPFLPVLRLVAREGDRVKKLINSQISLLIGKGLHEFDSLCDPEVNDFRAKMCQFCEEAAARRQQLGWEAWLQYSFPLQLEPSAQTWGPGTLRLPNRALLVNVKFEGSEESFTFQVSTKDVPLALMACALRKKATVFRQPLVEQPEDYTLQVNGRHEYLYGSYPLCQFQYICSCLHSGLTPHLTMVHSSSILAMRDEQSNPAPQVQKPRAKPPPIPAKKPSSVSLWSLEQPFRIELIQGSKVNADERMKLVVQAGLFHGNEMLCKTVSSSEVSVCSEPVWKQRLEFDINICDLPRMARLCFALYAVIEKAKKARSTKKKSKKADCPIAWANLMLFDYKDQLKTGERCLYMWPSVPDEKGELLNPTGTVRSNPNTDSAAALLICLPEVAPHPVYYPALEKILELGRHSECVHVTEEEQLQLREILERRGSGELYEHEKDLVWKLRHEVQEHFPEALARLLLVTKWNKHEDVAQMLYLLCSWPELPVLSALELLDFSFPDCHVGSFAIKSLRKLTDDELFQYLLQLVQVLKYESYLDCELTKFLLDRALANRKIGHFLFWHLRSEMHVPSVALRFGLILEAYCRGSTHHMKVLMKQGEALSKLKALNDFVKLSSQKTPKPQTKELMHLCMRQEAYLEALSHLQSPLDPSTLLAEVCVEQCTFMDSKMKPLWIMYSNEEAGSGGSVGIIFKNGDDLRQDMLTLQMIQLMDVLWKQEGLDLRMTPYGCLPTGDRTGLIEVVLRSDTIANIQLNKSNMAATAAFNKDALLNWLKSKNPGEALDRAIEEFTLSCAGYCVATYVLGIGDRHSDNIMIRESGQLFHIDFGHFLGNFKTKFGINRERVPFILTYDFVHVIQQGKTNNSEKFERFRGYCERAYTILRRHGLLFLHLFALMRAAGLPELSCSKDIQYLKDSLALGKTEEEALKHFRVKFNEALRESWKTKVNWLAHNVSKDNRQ
T1 sequence (P27986 whole entry partner): as the sequence (P27986 whole entry partner) above

C[C@@H](Nc1ncnc2[nH]cnc12)c1cc2cccc(N3CCOCC3)c2c(=O)n1-c1ccccc1 (stereo in doubt) [Compound 39]
IC50 (PI3K δ): < 1000 nM
IC50 (PI3K γ): < 1000 nM
IC50 (PI3K α): > 10000 nM
IC50 (PI3K β): > 10000 nM

C[C@@H](Nc1ncnc2[nH]cnc12)c1cc2cccc(NC3CCOCC3)c2c(=O)n1-c1ccccc1 (stereo in doubt) [Compound 40]
IC50 (PI3K δ): < 1000 nM
IC50 (PI3K γ): < 10000 nM
IC50 (PI3K α): > 10000 nM
IC50 (PI3K β): > 10000 nM

C[C@H](Nc1ncnc2[nH]cnc12)c1cc2cccc(N3CCCC3)c2c(=O)n1-c1ccccc1 [Compound 4, (S)-3-(1-((9H-purin-6-yl)amino)ethyl)-2-phenyl-8-(pyrrolidin-1-yl)isoquinolin-1 (2H)-one]
IC50 (PI3K δ): < 10000 nM
IC50 (PI3K γ): < 10000 nM
EC50 (Balb/c splenic B cells): < 1 µM

C[C@H](Nc1ncnc2[nH]cnc12)c1cc2cccc(N3CCN(C)CC3)c2c(=O)n1-c1ccccc1 [Compound 5, (S)-3-(1-((9H-purin-6-yl)amino)ethyl)-8-(4-methylpiperazin-1-yl)-2-phenylisoquinolin-1(2H)-one]
EC50 (Balb/c splenic B cells): < 0.1 µM

Cc1ccc(-c2cccc3cc([C@H](C)Nc4ncnc5[nH]cnc45)n(-c4ccccc4)c(=O)c23)cn1 [Compound 27]
IC50 (PI3K α): < 10000 nM
EC50 (Balb/c splenic B cells): < 0.1 µM

C[C@H](Nc1ncnc2[nH]cnc12)c1cc2cccc(-n3cccn3)c2c(=O)n1-c1ccccc1 [Compound 29]
IC50 (PI3K γ): < 10000 nM
EC50 (Balb/c splenic B cells): < 1 µM

Cc1cnn(-c2cccc3cc([C@H](C)Nc4ncnc5[nH]cnc45)n(-c4ccccc4)c(=O)c23)c1 [Compound 30]
IC50 (PI3K γ): < 10000 nM
EC50 (Balb/c splenic B cells): < 1 µM

Cc1cn(-c2cccc3cc([C@H](C)Nc4ncnc5[nH]cnc45)n(-c4ccccc4)c(=O)c23)cn1 [Compound 31]
IC50 (PI3K γ): < 10000 nM
EC50 (Balb/c splenic B cells): < 0.1 µM

C[C@H](Nc1ncnc(N)n1)c1cc2cccc(-c3cnn(C)c3)c2c(=O)n1-c1ccccc1 [Compound 33, 3-((S)-1-(4-amino-1,3,5-triazin-2-ylamino)ethyl)-8-(1-methyl-1H-pyrazol-4-yl)-2-phenylisoquinolin-1(2H)-one]
IC50 (PI3K γ): < 10000 nM
EC50 (Balb/c splenic B cells): < 0.1 µM

Cc1ccc(-c2cccc3cc([C@H](C)Nc4ncnc(N)n4)n(-c4ccccc4)c(=O)c23)cn1 [Compound 34]
IC50 (PI3K γ): < 10000 nM
EC50 (Balb/c splenic B cells): < 1 µM

C[C@H](Nc1nc(N)nc2[nH]cnc12)c1cc2cccc(-c3cnn(C)c3)c2c(=O)n1-c1ccccc1 [Compound 36]
IC50 (PI3K β): < 10000 nM
EC50 (Balb/c splenic B cells): < 0.1 µM

Cc1ccc(-c2cccc3cc([C@H](C)Nc4nc(N)nc5[nH]cnc45)n(-c4ccccc4)c(=O)c23)cn1 [Compound 37]
IC50 (PI3K β): < 10000 nM
EC50 (Balb/c splenic B cells): < 0.1 µM

C[C@H](Nc1nc(N)nc2[nH]cnc12)c1cc2cccc(-c3cccnc3)c2c(=O)n1-c1ccccc1 [Compound 38]
IC50 (PI3K β): < 10000 nM

Cc1cc(-c2cccc3cc([C@H](C)Nc4ncnc5[nH]cnc45)n(-c4ccccc4)c(=O)c23)ccn1 [Compound 41]
IC50 (PI3K β): < 10000 nM
EC50 (Balb/c splenic B cells): < 0.1 µM

C[C@H](Nc1ncnc2[nH]cnc12)c1cc2cccc(-c3cnn(C)c3)c2c(=O)n1-c1cccc(F)c1 [Compound 45]
IC50 (PI3K α): < 10000 nM
EC50 (Balb/c splenic B cells): < 0.1 µM

C[C@H](Nc1ncnc2[nH]cnc12)c1cc2cccc(-c3cccnc3)c2c(=O)[nH]1 [Compound 49]
EC50 (Balb/c splenic B cells): < 0.1 µM

C[C@H](Nc1ncnc2[nH]cnc12)c1cc2cccc(-c3cnn(C)c3)c2c(=O)[nH]1 [Compound 50]
IC50 (PI3K δ): < 10000 nM

C[C@H](Nc1ncnn2ccnc12)c1cc2cccc(-c3cnn(C)c3)c2c(=O)n1-c1ccccc1 [Compound 52]
IC50 (PI3K α): < 10000 nM
EC50 (Balb/c splenic B cells): < 0.1 µM

C[C@H](Nc1ncnn2cncc12)c1cc2cccc(-c3cnn(C)c3)c2c(=O)n1-c1ccccc1 [Compound 54]
IC50 (PI3K δ): < 10000 nM

C[C@H](Nc1ncnc2[nH]cc(C#N)c12)c1cc2cccc(-c3cnn(C)c3)c2c(=O)n1-c1ccccc1 [Compound 56]
IC50 (PI3K β): < 10000 nM
EC50 (Balb/c splenic B cells): < 0.1 µM

C[C@H](Nc1ncnc2[nH]cc(C(N)=O)c12)c1cc2cccc(-c3cnn(C)c3)c2c(=O)n1-c1ccccc1 [Compound 58]
IC50 (PI3K α): < 10000 nM
IC50 (PI3K β): < 10000 nM

C[C@H](Nc1ncnc2[nH]cc(F)c12)c1cc2cccc(-c3cnn(C)c3)c2c(=O)n1C1CC1 [Compound 62]
IC50 (PI3K α): < 10000 nM
IC50 (PI3K β): < 10000 nM
EC50 (Balb/c splenic B cells): < 0.1 µM

C[C@H](Nc1nc(N)ncc1C(F)(F)F)c1cc2cccc(-c3cnn(C)c3)c2c(=O)n1C1CC1 [Compound 67]
EC50 (Balb/c splenic B cells): < 0.1 µM

C[C@H](Nc1nc(N)ncc1C(F)(F)F)c1cc2cccc(-c3cnn(C)c3)c2c(=O)n1-c1ccccc1 [Compound 68]
EC50 (Balb/c splenic B cells): < 0.1 µM

C[C@H](Nc1nc(N)ncc1C#N)c1cc2cccc(-c3cnn(C)c3)c2c(=O)n1C1CC1 [Compound 72]
IC50 (PI3K α): < 10000 nM

C[C@H](Nc1ncnc(N)c1C#N)c1cc2cccc(-c3cnn(C)c3)c2c(=O)n1-c1ccccc1 [Compound 73]
IC50 (PI3K α): < 10000 nM

COc1ncc(-c2cccc3cc([C@H](C)Nc4ncnc5[nH]cnc45)n(-c4ccccc4)c(=O)c23)cn1 [Compound 76]
IC50 (PI3K γ): < 10000 nM
IC50 (PI3K α): < 10000 nM
